{"source": "paper PMC8587849", "about": "“Antimicrobial and Anticancer Application of Silver(I) Dipeptide Complexes” (Molecules, 2021)", "key": {"[1]": {"tested_on": "BJ-5ta", "experiment": "MTS assay on fibroblasts", "type": "cell-based", "details": "BJ-5ta human skin fibroblasts, 72 h", "protocol": "(§1) After 72 h of incubation, 10 µL of MTS was added to each well. […] IC50 values were calculated from MTS analyses."}, "[2]": {"tested_on": "Escherichia coli (E. coli) CCM 3988", "experiment": "Antibacterial activity, macrodilution method", "type": "cell-based", "procedure": "(§4) Cultures of bacteria (in Mueller-Hinton broth, MHB) and yeasts (in Sabouraud’s growth medium, SB) were incubated under shaking (250 rpm) at 37 °C. The growth of bacteria and yeasts was evaluated by measuring the absorbance of the growing cultures (A550) until the cultures reached the stationary growth phase. […] The final concentration of DMSO never exceeded 1.0 vol. % in the control or treated samples. […] The IC50 and MIC90 with respect to MIC80 values were evaluated from toxicity curves."}, "[3]": {"tested_on": "Alternaria alternata CCM F-128", "experiment": "Antifungal activity (filamentous fungi), macrodilution on solidified PDA", "type": "cell-based", "details": "A. alternata", "procedure": "(§5) Cultures of bacteria (in Mueller-Hinton broth, MHB) and yeasts (in Sabouraud’s growth medium, SB) were incubated under shaking (250 rpm) at 37 °C. The growth of bacteria and yeasts was evaluated by measuring the absorbance of the growing cultures (A550) until the cultures reached the stationary growth phase. […] During culturing, the diameters of growing fungal colonies were measured at regular intervals [71, 72]. […] The final concentration of DMSO never exceeded 1.0 vol. % in the control or treated samples. […] The IC50 and MIC90 with respect to MIC80 values were evaluated from toxicity curves."}, "[4]": {"tested_on": "HeLa", "experiment": "MTS antiproliferative assay", "type": "cell-based, human", "details": "72 h", "protocol": "as §1"}, "[5]": {"tested_on": "MCF-7", "experiment": "MTS antiproliferative assay", "type": "cell-based, human", "details": "72 h", "protocol": "as §1"}, "[6]": {"tested_on": "Microsporum gypseum CCM F-8342", "experiment": "Antifungal activity (filamentous fungi), macrodilution on solidified PDA", "type": "cell-based", "details": "M.gypseum; read-out: IC50 and MIC100 (class symbol)", "procedure": "as §5"}, "[7]": {"tested_on": "Candida parapsilosis ATCC 22019", "experiment": "Antifungal activity (yeast), macrodilution method", "type": "cell-based", "details": "C. parapsilosis", "procedure": "as §4"}, "[8]": {"tested_on": "Rhizopus oryzae CCM F-8284", "experiment": "Antifungal activity (filamentous fungi), macrodilution on solidified PDA", "type": "cell-based", "procedure": "as §5"}, "[9]": {"tested_on": "Staphylococcus epidermidis CCM 7221", "experiment": "Antibacterial activity, macrodilution method", "type": "cell-based", "details": "S.epidermidis", "procedure": "as §4"}, "[10]": {"tested_on": "Candida albicans SC 5314", "experiment": "Antifungal activity (yeast), macrodilution method", "type": "cell-based", "details": "C. albicans", "procedure": "as §5"}, "[11]": {"tested_on": "CT DNA", "experiment": "UV-Vis absorption titration with CT DNA", "type": "binding, calf", "details": "0.01 M Tris-HCl pH 7.4; complex 7.85 × 10^−5 M", "protocol": "UV–vis spectra were measured in 0.01 M Tris-HCl buffer (pH 7.4) using a Varian Cary 100 Bio spectrophotometer in the range of 230–320 nm and recorded at room temperature (24 °C) using a quartz cuvette of 1 cm path length. The concentration of investigated Ag(I) complexes was 7.85 × 10^−5 M. During the titration, an aliquot of buffered CT DNA solution was added to each cuvette (sample and reference) to eliminate the absorbance of DNA itself. The DNA concentration per nucleotide was determined by absorption spectroscopy using the molar absorption coefficient (6600 M^−1cm^−1) at 260 nm."}, "[12]": {"tested_on": "HCT116 cells", "experiment": "Cell cycle analysis by flow cytometry", "type": "cell-based, human", "details": "72 h, treated with IC50", "protocol": "(§2) Prior to each analysis, cells were washed in PBS, followed by resuspending in staining solution (0.5 mg/mL ribonuclease A, 0.2% final concentration Triton X-100, propidium iodide 0.025 mg/mL in 500 µL PBS) (all Sigma Aldrich), and incubated for 30 min at room temperature in the dark. For analysis of stained cells, a BD FACSCalibur flow cytometer (BD Bio-sciences) was used. A minimum of 1 × 10^4 events were analysed per analysis."}, "[13]": {"tested_on": "Jurkat cells", "experiment": "Cell cycle analysis by flow cytometry", "type": "cell-based, human", "details": "72 h, treated with IC50", "protocol": "as §2"}, "[14]": {"tested_on": "BLM cells", "experiment": "Cell cycle analysis by flow cytometry", "type": "cell-based, human", "details": "48 h, treated with IC50", "protocol": "as §2"}, "[15]": {"tested_on": "MDA-MB-231 cells", "experiment": "Cell cycle analysis by flow cytometry", "type": "cell-based, human", "details": "72 h, treated with IC50", "protocol": "as §2"}, "[16]": {"tested_on": "Staphylococcus aureus CCM 3953", "experiment": "Antibacterial activity, macrodilution method", "type": "cell-based", "details": "S. aureus", "procedure": "as §4"}, "[17]": {"tested_on": "MDA-MB-231", "experiment": "MTS antiproliferative assay", "type": "cell-based, human", "details": "72 h", "protocol": "(§3) Cells were maintained in standard conditions with an atmosphere containing 5% CO2 at 37 °C.\nas §1"}, "[18]": {"tested_on": "BLM", "experiment": "MTS antiproliferative assay", "type": "cell-based, human", "details": "BLM; MTS, 72 h", "protocol": "as §3, §1"}, "[19]": {"tested_on": "Jurkat", "experiment": "MTS antiproliferative assay", "type": "cell-based, human", "details": "72 h", "protocol": "as §3, §1"}, "[20]": {"tested_on": "HCT116", "experiment": "MTS antiproliferative assay", "type": "cell-based, human", "details": "72 h", "protocol": "as §3, §1"}, "[21]": {"tested_on": "CT DNA–HO system", "experiment": "Fluorescence competitive binding with Hoechst 33258", "set-up": "species or system calf", "details": "displacement of Hoechst 33258 from CT DNA; 462 nm; 10 mM Tris-HCl pH 7.4", "protocol": "The fluorescence competitive binding studies of silver(I) complexes with Hoechst 33 258 (HO) were performed on a Varian Cary Eclipse spectrophotometer. The emission spectra of DNA–HO were measured in the range of 400–550 nm using an excitation wavelength of 343 nm with a slit width of 5 nm for the excitation and 5 nm for the emission beam. […] Ksv quenching constant was determined according to the classical Stern-Volmer Equation (1) in [63, 75]:F0/F = 1 + KSV [Q](1) where F0 and F are the fluorescence intensities in the absence and the presence of the quencher at 462 nm, KSV is the Stern-Volmer quenching constant and [Q] is the concentration of the quencher."}, "[22]": {"tested_on": "A.flavus", "experiment": "Antifungal activity (filamentous fungi)", "type": "cell-based", "details": "read-out: IC50 and MIC100 (class symbol)", "procedure": "as §5"}, "[23]": {"tested_on": "S. aureus biofilm", "experiment": "Influence on S. aureus biofilm formation, crystal violet staining", "type": "cell-based", "details": "for A570 (biofilm, crystal violet): control A570 = 0.47; for I: biofilm intensity: control strong", "procedure": "The biofilm was qualified by the crystal violet staining method. Briefly, overnight cultures of bacteria S.aureus (in MHB) and yeasts C.parapsislosis (in SB) were prepared. The fresh prepared growth media MHB and SB were inoculated with the overnight culture for a final concentration of 5 × 10^6 cells mL^−1. The microbial biofilm was formed in 96-well microplates for adherent cells. […] Prepared cultures were incubated for 2 h at 37 °C. […] The treatment with DMSO (solvent) alone served as a control. The inoculated microplates were incubated at 37 °C for the next 46 h. […] Microplates with mature biofilm were decanted and washed using 200 μL of saline solution. The plate was left for 15 min to dry completely at laboratory temperature. Then, 110 μL of 0.4% crystal violet dye was added to each well, and the plate was incubated for 15 min at laboratory temperature. After the decantation, the plate was washed 3 times with 200 μL of saline solution. Then, 200 μL of 96% ethanol was added. The microplate was left to incubate for 15 min at laboratory temperature. After the transfer of the well content to a clean microplate, the absorbance (570 nm) of released crystal violet (proportionate to biofilm cell density) was measured,, and the values were evaluated as weak biofilm formation A570 <0.1; 0.199>, medium biofilm formation A570 <0.2; 0.3>, strong biofilm formation A570 <0.301; 0.999>, or very strong biofilm formation A570 ≥ 1.00."}, "[24]": {"tested_on": "methicillin-resistant Staphylococcus aureus L12", "experiment": "Antibacterial activity, macrodilution method", "type": "cell-based", "procedure": "as §4"}, "[25]": {"details": "read-out: IC50 and MIC100 (class symbol)"}}, "note": "pIC50: −log10 of the molar value. Where two headings read alike, the source gives them in different places."}
{"compound": "[Ag(GlyGly)]n(NO3)n [AgGlyGly]", "values": [{"measurement": "pIC50", "setting": "[1]", "result": 4.33}, {"measurement": "pIC50", "setting": "[2]", "result": 5.22}, {"measurement": "MIC90", "setting": "[2]", "result": 10, "unit": "µM"}, {"measurement": "pIC50", "setting": "[3]; read-out: IC50", "result": 4.15}, {"measurement": "MIC100", "setting": "[3]; suffix s = fungistatic", "result": "> 100", "unit": "µM"}, {"measurement": "pIC50", "setting": "[4]", "result": 4.42}, {"measurement": "pIC50", "setting": "[5]", "result": 5.05}, {"measurement": "pIC50", "setting": "[6]", "result": "< 4.00"}, {"measurement": "pIC50", "setting": "[7]", "result": 4.52}, {"measurement": "MIC80", "setting": "[7]", "result": 70, "unit": "µM"}, {"measurement": "pIC50", "setting": "[8]; read-out: IC50", "result": 4.52}, {"measurement": "MIC100", "setting": "[8]; suffix s = fungistatic", "result": 50, "unit": "µM"}, {"measurement": "pIC50", "setting": "[9]", "result": 5.00}, {"measurement": "MIC90", "setting": "[9]", "result": 20, "unit": "µM"}, {"measurement": "pIC50", "setting": "[10]", "result": 4.15}, {"measurement": "MIC80", "setting": "[10]", "result": 100, "unit": "µM"}, {"measurement": "Hypochromism", "setting": "[11]", "result": 20.1, "unit": "%"}, {"measurement": "Δλmax (red shift on addition of CT DNA)", "setting": "[11]", "result": 22, "unit": "nm"}, {"measurement": "cells in G2/M", "setting": "[12]", "result": "7.1 ± 2.3", "unit": "%"}, {"measurement": "cells in S", "setting": "[12]", "result": "9.8 ± 0.1", "unit": "%"}, {"measurement": "cells in G2/M", "setting": "[13]", "result": "8.9 ± 0.1", "unit": "%"}, {"measurement": "cells in S", "setting": "[13]", "result": "11.1 ± 0.8", "unit": "%"}, {"measurement": "cells in G2/M", "setting": "[14]", "result": "32.7 ± 2.4", "unit": "%"}, {"measurement": "cells in S", "setting": "[14]", "result": "15.3 ± 1.5", "unit": "%"}, {"measurement": "cells in G2/M", "setting": "[15]", "result": "14.9 ± 0.1", "unit": "%"}, {"measurement": "cells in S", "setting": "[15]", "result": "14.4 ± 0.1", "unit": "%"}, {"measurement": "pIC50", "setting": "[16]", "result": 4.92}, {"measurement": "MIC90", "setting": "[16]", "result": 22, "unit": "µM"}, {"measurement": "pIC50", "setting": "[17]", "result": 4.89}, {"measurement": "pIC50", "setting": "[18]", "result": 4.67}, {"measurement": "pIC50", "setting": "[19]", "result": 4.83}, {"measurement": "pIC50", "setting": "[20]", "result": 4.46}, {"measurement": "KSV (Stern-Volmer quenching constant)", "setting": "[21]", "result": "4.51 ± 0.05 × 10^4 M^−1"}, {"measurement": "pIC50", "setting": "[22]", "result": "< 4.00"}, {"measurement": "A570 (biofilm, crystal violet)", "setting": "[23]; complex concentration 5 µM", "result": 0.72}, {"measurement": "I: biofilm intensity", "setting": "[23]; complex concentration 5 µM", "result": "strong (strong biofilm formation A570 <0.301; 0.999>)"}, {"measurement": "A570 (biofilm, crystal violet)", "setting": "[23]; complex concentration 10 µM", "result": 0.39}, {"measurement": "I: biofilm intensity", "setting": "[23]; complex concentration 10 µM", "result": "strong (strong biofilm formation A570 <0.301; 0.999>)"}, {"measurement": "A570 (biofilm, crystal violet)", "setting": "[23]; complex concentration 25 µM", "result": 0.26}, {"measurement": "A570 (biofilm, crystal violet)", "setting": "[23]; complex concentration 50 µM", "result": 0.22}, {"measurement": "A570 (biofilm, crystal violet)", "setting": "[23]; complex concentration 100 µM", "result": 0.28}, {"measurement": "I: biofilm intensity", "setting": "[23]; complex concentration 100 µM", "result": "medium (medium biofilm formation A570 <0.2; 0.3>)"}, {"measurement": "pIC50", "setting": "[24]; S. aureus L12 (MRSA)", "result": 4.82}, {"measurement": "MIC90", "setting": "[24]; S. aureus L12 (MRSA)", "result": 38, "unit": "µM"}]}
{"compound": "O=[N+]([O-])[O-].[Ag+]", "note": "[AgNO3, silver(I) nitrate]", "values": [{"measurement": "pIC50", "setting": "[1]", "result": 4.61}, {"measurement": "pIC50", "setting": "[4]", "result": 4.34}, {"measurement": "pIC50", "setting": "[5]", "result": 4.88}, {"measurement": "pIC50", "setting": "[17]", "result": 4.59}, {"measurement": "pIC50", "setting": "[18]", "result": 4.50}, {"measurement": "pIC50", "setting": "[19]", "result": 5.18}, {"measurement": "pIC50", "setting": "[20]", "result": 4.66}]}
{"compound": "N.N.[Cl][Pt][Cl]", "note": "[cisPt, cisplatin]", "values": [{"measurement": "pIC50", "setting": "[1]", "result": 4.42}, {"measurement": "pIC50", "setting": "[4]", "result": 4.45}, {"measurement": "pIC50", "setting": "[5]", "result": 4.53}, {"measurement": "pIC50", "setting": "[17]", "result": 5.15}, {"measurement": "pIC50", "setting": "[18]", "result": 4.53}, {"measurement": "pIC50", "setting": "[19]", "result": 5.20}, {"measurement": "pIC50", "setting": "[20]", "result": 5.13}]}
{"compound": "NCC(=O)O", "note": "[Gly, glycine, reference compound]", "values": [{"measurement": "IC50 and MIC90 (class symbol)", "setting": "[2]; free ligands", "result": "N (N- not active IC50 and MIC90 values > 2 mmol.l-1)"}, {"measurement": "pIC50", "setting": "[3]; [25]", "result": "< 2.70"}, {"measurement": "pIC50", "setting": "[6]", "result": "< 2.70"}, {"measurement": "IC50 and MIC80 (class symbol)", "setting": "[7]", "result": "N (N- not active IC50 and MIC values > 2 mmol.l-1)"}, {"measurement": "pIC50", "setting": "[8]; [25]", "result": "< 2.70"}, {"measurement": "IC50 and MIC90 (class symbol)", "setting": "[9]; free ligands", "result": "N (N- not active IC50 and MIC90 values > 2 mmol.l-1)"}, {"measurement": "IC50 and MIC80 (class symbol)", "setting": "[10]", "result": "N (N- not active IC50 and MIC values > 2 mmol.l-1)"}, {"measurement": "IC50 and MIC90 (class symbol)", "setting": "[16]; free ligands", "result": "N (N- not active IC50 and MIC90 values > 2 mmol.l-1)"}, {"measurement": "pIC50", "setting": "[22]", "result": "< 2.70"}, {"measurement": "IC50 and MIC90 (class symbol)", "setting": "[24]; S. aureus L12, free ligands", "result": "N (N- not active IC50 and MIC90 values > 2 mmol.l-1)"}]}
